Assay results reported in PubChem BioAssay (NCI).
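Five concentrations, 48 hours, 96-well plates. GI50 marks 50% less growth. At the TGI there is no net growth.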

Experiments:
Assay in all cases: growth of human tumour cells (NCI), 48 h
PC-3 prostate = tested on: PC-3 prostate
SK-MEL-28 melanoma = tested on: SK-MEL-28 melanoma
CCRF-CEM leukemia = tested on: CCRF-CEM leukemia
NCI-H522 lung = tested on: NCI-H522 lung
U251 CNS = tested on: U251 CNS
MALME-3M melanoma = tested on: MALME-3M melanoma
KM12 colon = tested on: KM12 colon
HCC-2998 colon = tested on: HCC-2998 colon
HCT-15 colon = tested on: HCT-15 colon
OVCAR-5 ovarian = tested on: OVCAR-5 ovarian
HT29 colon = tested on: HT29 colon
SN12C renal = tested on: SN12C renal
SK-MEL-5 melanoma = tested on: SK-MEL-5 melanoma
786-0 renal = tested on: 786-0 renal
HOP-62 NSCLC = tested on: HOP-62 NSCLC
SW-620 colon = tested on: SW-620 colon
T-47D breast = tested on: T-47D breast
TK-10 renal = tested on: TK-10 renal
MDA-MB-231 breast = tested on: MDA-MB-231 breast
IGROV1 ovarian = tested on: IGROV1 ovarian
UACC-62 melanoma = tested on: UACC-62 melanoma
DU-145 prostate = tested on: DU-145 prostate
SF-268 CNS = tested on: SF-268 CNS
SK-OV-3 ovarian = tested on: SK-OV-3 ovarian
BT-549 breast = tested on: BT-549 breast
SF-539 CNS = tested on: SF-539 CNS
K-562 leukemia = tested on: K-562 leukemia
OVCAR-8 ovarian = tested on: OVCAR-8 ovarian
NCI/ADR-RES ovarian = tested on: NCI/ADR-RES ovarian
HL-60(TB) leukemia = tested on: HL-60(TB) leukemia
NCI-H23 lung = tested on: NCI-H23 lung
NCI-H460 lung = tested on: NCI-H460 lung
SK-MEL-2 melanoma = tested on: SK-MEL-2 melanoma
EKVX NSCLC = tested on: EKVX NSCLC
RPMI-8226 leukemia = tested on: RPMI-8226 leukemia
A549 NSCLC = tested on: A549 NSCLC
SR leukemia = tested on: SR leukemia
A498 renal = tested on: A498 renal
MOLT-4 leukemia = tested on: MOLT-4 leukemia
UACC-257 melanoma = tested on: UACC-257 melanoma
UO-31 renal = tested on: UO-31 renal
SNB-75 CNS = tested on: SNB-75 CNS
ACHN renal = tested on: ACHN renal
NCI-H226 lung = tested on: NCI-H226 lung
HOP-92 NSCLC = tested on: HOP-92 NSCLC
HCT-116 colon = tested on: HCT-116 colon
MCF7 breast = tested on: MCF7 breast
OVCAR-4 ovarian = tested on: OVCAR-4 ovarian
MDA-MB-435 = tested on: MDA-MB-435
M14 melanoma = tested on: M14 melanoma
CAKI-1 renal = tested on: CAKI-1 renal
COLO 205 colon = tested on: COLO 205 colon
SNB-19 CNS = tested on: SNB-19 CNS
SF-295 CNS = tested on: SF-295 CNS

With `Nc1cc(N)c2nc(-c3ccccc3)c(NCCc3ccc(Cl)c(Cl)c3)nc2c1` the GI50 (PC-3 prostate) was 1.01 µM, the TGI (PC-3 prostate) was 4.29 µM and the GI50 (SK-MEL-28 melanoma) was 2.13 µM. For the same compound, the TGI (SK-MEL-28 melanoma) was 5.88 µM, the GI50 (CCRF-CEM leukemia) was 2.77 µM and the TGI (CCRF-CEM leukemia) was 12.3 µM. The GI50 (NCI-H522 lung) was 2.11 µM, the TGI (NCI-H522 lung) was 4.98 µM and the GI50 (U251 CNS) was 2.03 µM. For the same compound, the TGI (U251 CNS) was 5.32 µM, the GI50 (MALME-3M melanoma) was 1.85 µM and the TGI (MALME-3M melanoma) was 4.5 µM. For the same compound, the GI50 (KM12 colon) was 2.63 µM, the TGI (KM12 colon) was 10.5 µM and the GI50 (HCC-2998 colon) was 5.78 µM. For the same compound, the TGI (HCC-2998 colon) was 19.7 µM, the GI50 (HCT-15 colon) was 4.64 µM and the TGI (HCT-15 colon) was 20 µM. The GI50 (OVCAR-5 ovarian) was 1.81 µM, the TGI (OVCAR-5 ovarian) was 4.75 µM and the GI50 (HT29 colon) was 3.4 µM. The TGI (HT29 colon) was 13.2 µM, the GI50 (SN12C renal) was 1.75 µM and the TGI (SN12C renal) was 3.37 µM. It also gave a GI50 (SK-MEL-5 melanoma) of 2.32 µM, a TGI (SK-MEL-5 melanoma) of 7.52 µM and a GI50 (786-0 renal) of 3.13 µM. The TGI (786-0 renal) was 21.1 µM, the GI50 (HOP-62 NSCLC) was 3.92 µM and the TGI (HOP-62 NSCLC) was 39.8 µM. It also gave a GI50 (SW-620 colon) of 1.64 µM, a TGI (SW-620 colon) of 2.99 µM and a GI50 (T-47D breast) of 1.8 µM. For the same compound, the TGI (T-47D breast) was 5.94 µM, the GI50 (TK-10 renal) was 4.78 µM and the TGI (TK-10 renal) was 17.5 µM. For the same compound, the GI50 (MDA-MB-231 breast) was 1.3 µM, the TGI (MDA-MB-231 breast) was 3.89 µM and the GI50 (IGROV1 ovarian) was 3.38 µM. It also gave a TGI (IGROV1 ovarian) of 15.9 µM, a GI50 (UACC-62 melanoma) of 2.5 µM and a TGI (UACC-62 melanoma) of 7.97 µM. For the same compound, the GI50 (DU-145 prostate) was 1.63 µM, the TGI (DU-145 prostate) was 3.63 µM and the GI50 (SF-268 CNS) was 2.85 µM. For the same compound, the TGI (SF-268 CNS) was 12.9 µM, the GI50 (SK-OV-3 ovarian) was 12.3 µM and the TGI (SK-OV-3 ovarian) was 24.7 µM. For the same compound, the GI50 (BT-549 breast) was 1.56 µM, the TGI (BT-549 breast) was 13.8 µM and the GI50 (SF-539 CNS) was 2.22 µM. The TGI (SF-539 CNS) was 10.9 µM, the GI50 (K-562 leukemia) was 1.87 µM and the TGI (K-562 leukemia) was 5.29 µM. For the same compound, the GI50 (OVCAR-8 ovarian) was 2.41 µM, the TGI (OVCAR-8 ovarian) was 6.02 µM and the GI50 (NCI/ADR-RES ovarian) was 3.62 µM. The TGI (NCI/ADR-RES ovarian) was 18.8 µM, the GI50 (HL-60(TB) leukemia) was 2.07 µM and the TGI (HL-60(TB) leukemia) was 5.27 µM. For the same compound, the GI50 (NCI-H23 lung) was 2.81 µM, the TGI (NCI-H23 lung) was 13.3 µM and the GI50 (NCI-H460 lung) was 3.21 µM. It also gave a TGI (NCI-H460 lung) of 14.1 µM, a GI50 (SK-MEL-2 melanoma) of 10.3 µM and a TGI (SK-MEL-2 melanoma) of 22.4 µM. It also gave a GI50 (EKVX NSCLC) of 3.16 µM, a TGI (EKVX NSCLC) of 16.2 µM and a GI50 (RPMI-8226 leukemia) of 0.924 µM. For the same compound, the TGI (RPMI-8226 leukemia) was 2.91 µM, the GI50 (A549 NSCLC) was 12.6 µM and the TGI (A549 NSCLC) was 33.1 µM. It also gave a GI50 (SR leukemia) of 1.66 µM, a TGI (SR leukemia) of 7.61 µM and a GI50 (A498 renal) of 11.3 µM. It also gave a TGI (A498 renal) of 23.4 µM, a GI50 (MOLT-4 leukemia) of 1.14 µM and a TGI (MOLT-4 leukemia) of 9.32 µM. It also gave a GI50 (UACC-257 melanoma) of 2.06 µM, a TGI (UACC-257 melanoma) of 4.52 µM and a GI50 (UO-31 renal) of 1.93 µM. The TGI (UO-31 renal) was 3.97 µM, the GI50 (SNB-75 CNS) was 6.18 µM and the TGI (SNB-75 CNS) was 33.4 µM. It also gave a GI50 (ACHN renal) of 3.31 µM, a TGI (ACHN renal) of 12.4 µM and a GI50 (NCI-H226 lung) of 16.5 µM. The TGI (NCI-H226 lung) was 33.3 µM.

For `S=c1oc(CCCCCCCCc2nn(CNc3ccccc3)c(=S)o2)nn1CNc1ccccc1`, the TGI (PC-3 prostate) was > 100 µM, the TGI (HOP-92 NSCLC) was > 100 µM and the TGI (SK-MEL-28 melanoma) was > 100 µM. The TGI (HCT-116 colon) was > 100 µM, the TGI (MCF7 breast) was > 100 µM and the TGI (NCI-H522 lung) was > 100 µM. For the same compound, the TGI (U251 CNS) was > 100 µM, the TGI (KM12 colon) was > 100 µM and the TGI (HCC-2998 colon) was > 100 µM. The TGI (HCT-15 colon) was > 100 µM, the TGI (OVCAR-5 ovarian) was > 100 µM and the TGI (HT29 colon) was > 100 µM. For the same compound, the TGI (SN12C renal) was > 100 µM, the TGI (SK-MEL-5 melanoma) was > 100 µM and the TGI (OVCAR-4 ovarian) was > 100 µM. For the same compound, the TGI (786-0 renal) was > 100 µM, the TGI (HOP-62 NSCLC) was > 100 µM and the TGI (MDA-MB-435) was > 100 µM. The TGI (SW-620 colon) was > 100 µM, the TGI (TK-10 renal) was > 100 µM and the TGI (MDA-MB-231 breast) was > 100 µM. For the same compound, the TGI (M14 melanoma) was > 100 µM, the TGI (CAKI-1 renal) was > 100 µM and the TGI (UACC-62 melanoma) was > 100 µM. The TGI (DU-145 prostate) was > 100 µM, the TGI (SF-268 CNS) was > 100 µM and the TGI (SK-OV-3 ovarian) was > 100 µM. For the same compound, the TGI (BT-549 breast) was > 100 µM, the TGI (K-562 leukemia) was > 100 µM and the TGI (NCI/ADR-RES ovarian) was > 100 µM. For the same compound, the TGI (NCI-H23 lung) was > 100 µM, the TGI (NCI-H460 lung) was > 100 µM and the TGI (COLO 205 colon) was > 100 µM. For the same compound, the TGI (SK-MEL-2 melanoma) was > 100 µM, the TGI (SNB-19 CNS) was > 100 µM and the TGI (EKVX NSCLC) was > 100 µM. The TGI (RPMI-8226 leukemia) was > 100 µM, the TGI (A549 NSCLC) was > 100 µM and the TGI (A498 renal) was > 100 µM. The TGI (MOLT-4 leukemia) was > 100 µM, the TGI (UACC-257 melanoma) was > 100 µM and the TGI (SF-295 CNS) was > 100 µM. For the same compound, the TGI (UO-31 renal) was > 100 µM, the TGI (SNB-75 CNS) was > 100 µM and the TGI (ACHN renal) was > 100 µM. For the same compound, the TGI (NCI-H226 lung) was > 100 µM.
